Laboratory results taken from US5527940A, “Methanediphosphonate derivative, its manufacturing process and its pharmaceutical applications” (Toray Industries, Inc., priority 1991, dated 1996).

How the values were obtained:
[1] = test system: adjuvant arthritis model; experiment: Adjuvant Arthritis Test; type: in vivo, 7 week old female Lewis rats; design: concentration or dose not given beside the values; settings: subcutaneous daily days 8-21; for Bone Destruction Inhibition Rate with respect to control group, Day 22: Day 22, soft X-ray score of left and right hind limbs; for Swelling Inhibition Rate with respect to Control Group, Day 21, Left / Swelling Inhibition Rate with respect to Control Group, Left (day 14 per footnote) / Swelling Inhibition Rate with respect to Control Group, Day 16, Left: left (adjuvant-injected) hind limb; for Swelling Inhibition Rate with respect to Control Group, Left (day 14 per footnote) / Swelling Inhibition Rate with respect to Control Group, Right (day 14 per footnote): day 14 (column head Day 16); for Swelling Inhibition Rate with respect to Control Group, Day 21, Right / Swelling Inhibition Rate with respect to Control Group, Right (day 14 per footnote) / Swelling Inhibition Rate with respect to Control Group, Day 16, Right: right hind limb
Protocol: Multiple arthritis resembling human chronic articular rheumatism occurs when tubercule bacillus adjuvant is injected into rats. The antiinflammatory, antirheumatic and bone metabolism improving action of compounds of the present invention were investigated according to the following procedure using this adjuvant arthritis model.
0.1 mg of dried non-viable Mycobacterium butyricum cells were suspended in 0.1 ml of liquid paraffin followed by injection into the skin of the left hind limb of 7 week old female Lewis rats. The compounds obtained in the Examples were dissolved in sterilized distilled water and administered subcutaneously every day for two weeks from the 8th to 21st days after injection of adjuvant. During that time, the volumes of the right and left hind limbs were measured and the swelling rate was calculated according to the following formula: [formula]
Moreover, the swelling inhibition rates were also determined according to the following formula, and those values are shown in Table 1. [formula]
Soft X-ray radiographs were taken of the left and right hind limbs of the animals following sacrifice on day 22. The degree of bone destruction at five locations in the left and right hind limbs was evaluated based on the soft X-ray radiographs scoring those results among 5 ranks. Moreover, the bone destruction inhibition rate was calculated using the following formula, and those values are shown in Table 1. [formula]
Those results that were significant at a level of significance of P<0.001 with respect to a control group administered only sterilized distilled water according to the Student's t-test and Chukey's multiple comparison method were indicated with three asterisks (***), those results that were significant at a level of significance of P<0.01 were indicated with two asterisks (**), and those significant at a level of significance of P<0.05 were indicated with one asterisk (*).
The swelling inhibition rates for Example 7 and Example 33 are the values for day 14 and day 21.

[2] = test system: active oxygen production by human neutrophils; experiment: Release of active oxygen from fMLP-stimulated human neutrophils (CLA luminescence); type: cell-based; settings: Neutrophil, 10 μM compound, fMLP stimulation, read-out: Active Oxygen Production Inhibition Rate
Excerpt: Neutrophils are known to function in the body defense reactions by phagocytosis of foreign bodies to remove them and production of active oxygen and digestive enzymes. However, the active oxygen and digestive enzymes produced by neutrophils also damage normal tissue during chronic inflammations and so forth. Moreover, they are also considered to exacerbate the inflammation. The action of compounds of the present invention was therefore measured with respect to the release of active oxygen from human neutrophils.
50 ml of human blood were drawn from a vein using 3.8% sodium citrate as anticoagulant. Equal volumes of this blood and a physiological saline solution containing 2% dextran were mixed and allowed to stand undisturbed for 30 minutes at 37° C. after shaking several times. The upper layer was separated and layered onto an equal volume of Ficoll-Paque solution. After centrifuging for 30 minutes at 1400 rpm and 20° C., the supernatant was removed and the cells were resuspended with Hanks buffer. […] The maximum amount of light emitted was then determined by a luminometer taking advantage of the phenomenon in which this excited carbonyl form emits light at 380 nm in the process of transition to the ground state. The active oxygen production inhibition rate was then calculated using the formula indicated below. […]

[3] = test system: osteoclasts (mouse bone cells), resorption pit formation; experiment: Bone resorption pit formation by mouse bone cells (osteoclasts) on ivory, active type-vitamin D3 stimulation; type: cell-based, ICR mice; settings: 10 nM active type-vitamin D3, 4 days
Excerpt: The balance between bone formation and bone destruction is disturbed during osteoporosis, with bone destruction considered to be accelerated. Bone destruction is believed to occur due to an increase in the activation and number of osteoclasts. Experiments have been conducted wherein bone resorption was induced with active type-vitanium D3 stimulation using mouse bone cells dispersed on ivory for the experimental model. The bone resorption inhibitory action of compounds of the present invention was measured using this model.
After isolating the femur and tibia from 10-15 day old ICR mice, the bone specimens were prepared into thin sections in α-MEM medium containing 5% fetal bovine serum to prepare an bone cells suspension containing marrow cells and bone matrix. Large fragments of bone were removed with nylon mesh. Viable total cells were counted with trypan blue exclusion test while osteoclasts were stained with tartaric acid-resistantacid phosphatase stain to prepare a cell suspension containing osteoclasts in a proportion of roughly 0.05-0.1%. The ivory was cut into thin sections having a thickness of 150 μm using a low-speed rotary diamond cutter. The thin sections were then punched to a size that matched the size of the wells of a 96 well plate. These ivory fragments were placed in a 96 well plate followed by addition of the cell suspension prepared above so that each well contained 500 osteoclasts. 10 nM active type-vitamin D3 was added as stimulant simultaneous to addition of the drugs of the present invention at concentrations of 10 μM and 100 μM. After culturing the cells for 4 days at 37° C. in an environment of 10% CO2, the resorption pits that formed on the ivory slices were stained with hematoxylin and counted by observing microscopically. The resorption pit formation inhibition rate was then calculated using the formula indicated below. [formula]
The results were statistically processed using the Student's t-test, and those results that were significant at a level of significance of P<0.05 with respect to an active type-vatanium D3 stimulation control group were indicated with one asterisk (*), while those results that were significant at a level of significance of P<0.01 were indicated with two asterisks (**).

[4] = test system: IL-1 production by J774-1 mouse macrophage cells; experiment: Action on IL-1 Production by Strain J774-1 Mouse Macrophage Cells (LPS stimulated); type: cell-based; settings: 100 μM compound, LPS 1 μg/ml, 24 hours, read-out: IL-1 Production Inhibition Rate with respect to Control Group
Protocol: It is also known that these cells produce IL-1 when stimulated with LPS. The inhibitory action on IL-1 production of compounds of the present invention was measured according to the following procedure using this cell line.
The J774-1 cells were cultured in RPMI-1640 medium containing 10% fetal bovine serum and 50 μM 2-mercaptoethanol followed by adjusting the number of cells to 2×10^5 cells/ml. 1 ml aliquots of this cell suspension were then placed in the wells of a 24 well plate and cultured for 30 minutes. Following culturing, LPS was added to a final concentration of 1 μg/ml. At the same time, compounds obtained in Examples were dissolved in sterilized distilled water and added at a concentration of 100 μM. […]
The samples obtained above were serially diluted by a factor of 2 in a 96 well multiplate at a capacity of 50 μl. […] The thymus cells were then cultured for 72 hours and IL-1 activity was determined from the growth rate of the cells. […] Using the absorbance of the pigment produced by this reduction at 570 nm as the index, the dilution factor of the sample when growth of thymus cells is induced by 50% was calculated in terms of the number of units of that sample by taking the case of induction of maximum growth of T cells by human gene recombinant IL-1 to be 100% growth, and growth in the case of not adding IL-1 to be 0%. […]

## CSc1cccc(SC(P(=O)(O)O)P(=O)(O)O)c1 [Example 7, (3-methylthiophenyl)thiomethanediphosphonic Acid]
[1]
  Bone Destruction Inhibition Rate with respect to control group, Day 22: 43.7%
  Swelling Inhibition Rate with respect to Control Group, Day 21, Left: 72.7%
  Swelling Inhibition Rate with respect to Control Group, Left (day 14 per footnote): 48.6%
  Swelling Inhibition Rate with respect to Control Group, Day 21, Right: 24.2%
  Swelling Inhibition Rate with respect to Control Group, Right (day 14 per footnote): 15.0%

## CSc1ccccc1SC(P(=O)(O)O)P(=O)(O)O [Example 9, (2-methylthiophenyl)thiomethanediphosphonic Acid]
[2]
  inhibition at 10 µM: 46.3 ± 0.81%
[3]; 10 μM compound
  resorption pit formation Inhibition Rate with respect to Control Group: 35.8 ± 27.0%
[3]; 100 μM compound
  resorption pit formation Inhibition Rate with respect to Control Group: 77.8 ± 3.59%

## CSc1ccc(CC(P(=O)(O)O)P(=O)(O)O)cc1 [Example 30, 2-(4-methylthiophenyl)ethane-1,1-diphosphonic acid]
[3]; 10 μM compound
  resorption pit formation Inhibition Rate with respect to Control Group: 35.6 ± 11.3%
[3]; 100 μM compound
  resorption pit formation Inhibition Rate with respect to Control Group: 87.0 ± 4.34%

## O=P(O)(O)C(Sc1ccc(Sc2ccccc2)cc1)P(=O)(O)O [Example 15, (4-phenylthiophenyl)thiomethanediphosphonic Acid]
[3]; 10 μM compound
  resorption pit formation Inhibition Rate with respect to Control Group: 30.5 ± 22.9%
[3]; 100 μM compound
  resorption pit formation Inhibition Rate with respect to Control Group: 74.1 ± 4.38%
[1]
  Bone Destruction Inhibition Rate with respect to control group, Day 22: 33.7%
  Swelling Inhibition Rate with respect to Control Group, Day 16, Left: 75.0%
  Swelling Inhibition Rate with respect to Control Group, Day 21, Left: 73.8%
  Swelling Inhibition Rate with respect to Control Group, Day 16, Right: 28.1%
  Swelling Inhibition Rate with respect to Control Group, Day 21, Right: 33.7%

## CC(C)Sc1ccc(SC(P(=O)(O)O)P(=O)(O)O)cc1 [Example 13, (4-isopropylthiophenyl)thiomethanediphosphonic Acid]
[3]; 10 μM compound
  resorption pit formation Inhibition Rate with respect to Control Group: 54.6 ± 10.4%
[3]; 100 μM compound
  resorption pit formation Inhibition Rate with respect to Control Group: 92.5 ± 0.61%
[1]
  Bone Destruction Inhibition Rate with respect to control group, Day 22: 62.5%
  Swelling Inhibition Rate with respect to Control Group, Day 16, Left: 76.9%
  Swelling Inhibition Rate with respect to Control Group, Day 21, Left: 91.8%
  Swelling Inhibition Rate with respect to Control Group, Day 16, Right: 16.8%
  Swelling Inhibition Rate with respect to Control Group, Day 21, Right: 28.7%
[4]
  inhibition at 100 µM: 38.6%

## CSc1ccc(SCCCC(O)(P(=O)(O)O)P(=O)(O)O)cc1 [Example 33, disodium 4-(4-methylthiophenyl)thio-1-hydroxy-butylidene-1,1-diphosphonate]
[1]
  Bone Destruction Inhibition Rate with respect to control group, Day 22: 77.1%
  Swelling Inhibition Rate with respect to Control Group, Day 21, Left: 138.0%
  Swelling Inhibition Rate with respect to Control Group, Left (day 14 per footnote): 115.0%
  Swelling Inhibition Rate with respect to Control Group, Day 21, Right: 66.1%
  Swelling Inhibition Rate with respect to Control Group, Right (day 14 per footnote): 63.5%

## CSc1ccc(C=C(P(=O)(O)O)P(=O)(O)O)cc1 [Example 28, 2-(4-methylthiophenyl)ethynilidene-1,1-diphosphonic acid]
[3]; 10 μM compound
  resorption pit formation Inhibition Rate with respect to Control Group: -0.34 ± 10.1%
[3]; 100 μM compound
  resorption pit formation Inhibition Rate with respect to Control Group: 67.8 ± 3.98%
